Data published in patent US20240091115A1, “Oral Care Compositions and Methods of Use” (Colgate-Palmolive Company, priority 2019, published 2024).

Columns and labels:
[1] = system: mixed species biofilm; assay: Seahorse XFe Extracellular Flux Analyzer, bacterial metabolism (OCR/ECAR) in mixed species biofilm; type: cell-based; conditions: oxygen consumption rate
Description: (§1) Samples with varying amounts of cannabidiol (CBD) are assessed for their effects on cellular metabolism with and without various source of zinc. Using the Seahorse XF^e Extracellular Flux Analyzer, biofilm samples are grown for 48 hrs. […] The biofilms are harvested for culture. Diluted biofilm and toothpaste slurry are loaded to each well. Glycolysis—Extracellular Acidification Rate (ECAR) and Mitochondrial Respiration—Oxygen Consumption Rate (OCR) is measured for 25-50 cycles (˜360 minutes). […] The “CBD Oil” is 5% CBD (by wt. of the CBD Oil) in Hemp seed oil.
Where the “OCR” is oxygen consumption rate units as measured using the Seahorse XF^e Extracellular Flux Analyzer.: […]

[2] = system: S. mutans biofilms; assay: Seahorse XFe Extracellular Flux Analyzer, bacterial metabolism (OCR/ECAR) in S. mutans biofilm; type: cell-based; conditions: CBD and arginine slurries
Description: as §1

Q: Which “Average (OCR) (p mole/min)” value ([1]; Table 3, mixed species biofilm, CBD and stannous fluoride slurries, untreated 11489.9) does the source give for `[F][Sn][F]` [0.2% by wt. Stannous Fluoride, Stannous Fluoride] here?
A: 10440.7 p mole/min

Q: `CC(O)C(=O)[O-].CC(O)C(=O)[O-].[Zn+2]` (stereo not shown) [1.5% Zinc Lactate, Zinc Lactate] was tested. Which “Average (OCR) (p mole/min)” value ([1]; Table 1, mixed biofilm, CBD and zinc lactate, untreated 25,669.50) did it give?
A: 21,900.63 p mole/min

Q: How did the “OCR Value (p mole/min)” value ([2]; Table 4, oxygen consumption rate, untreated 1449.50) turn out when `N=C(N)NCCC[C@H](N)C(=O)O` [1% Arg, arginine] was run?
A: 518.58 p mole/min

Q: What about the “ECR Value (mpH/min)” value ([2]; Table 5, extracellular acidification rate, untreated 701.2) of the same molecule?
A: 518.6 mpH/min
